The assay concerns the target T1, Angiotensin-converting enzyme (Oryctolagus cuniculus, UniProt P12822).
T1 sequence (P12822 whole entry): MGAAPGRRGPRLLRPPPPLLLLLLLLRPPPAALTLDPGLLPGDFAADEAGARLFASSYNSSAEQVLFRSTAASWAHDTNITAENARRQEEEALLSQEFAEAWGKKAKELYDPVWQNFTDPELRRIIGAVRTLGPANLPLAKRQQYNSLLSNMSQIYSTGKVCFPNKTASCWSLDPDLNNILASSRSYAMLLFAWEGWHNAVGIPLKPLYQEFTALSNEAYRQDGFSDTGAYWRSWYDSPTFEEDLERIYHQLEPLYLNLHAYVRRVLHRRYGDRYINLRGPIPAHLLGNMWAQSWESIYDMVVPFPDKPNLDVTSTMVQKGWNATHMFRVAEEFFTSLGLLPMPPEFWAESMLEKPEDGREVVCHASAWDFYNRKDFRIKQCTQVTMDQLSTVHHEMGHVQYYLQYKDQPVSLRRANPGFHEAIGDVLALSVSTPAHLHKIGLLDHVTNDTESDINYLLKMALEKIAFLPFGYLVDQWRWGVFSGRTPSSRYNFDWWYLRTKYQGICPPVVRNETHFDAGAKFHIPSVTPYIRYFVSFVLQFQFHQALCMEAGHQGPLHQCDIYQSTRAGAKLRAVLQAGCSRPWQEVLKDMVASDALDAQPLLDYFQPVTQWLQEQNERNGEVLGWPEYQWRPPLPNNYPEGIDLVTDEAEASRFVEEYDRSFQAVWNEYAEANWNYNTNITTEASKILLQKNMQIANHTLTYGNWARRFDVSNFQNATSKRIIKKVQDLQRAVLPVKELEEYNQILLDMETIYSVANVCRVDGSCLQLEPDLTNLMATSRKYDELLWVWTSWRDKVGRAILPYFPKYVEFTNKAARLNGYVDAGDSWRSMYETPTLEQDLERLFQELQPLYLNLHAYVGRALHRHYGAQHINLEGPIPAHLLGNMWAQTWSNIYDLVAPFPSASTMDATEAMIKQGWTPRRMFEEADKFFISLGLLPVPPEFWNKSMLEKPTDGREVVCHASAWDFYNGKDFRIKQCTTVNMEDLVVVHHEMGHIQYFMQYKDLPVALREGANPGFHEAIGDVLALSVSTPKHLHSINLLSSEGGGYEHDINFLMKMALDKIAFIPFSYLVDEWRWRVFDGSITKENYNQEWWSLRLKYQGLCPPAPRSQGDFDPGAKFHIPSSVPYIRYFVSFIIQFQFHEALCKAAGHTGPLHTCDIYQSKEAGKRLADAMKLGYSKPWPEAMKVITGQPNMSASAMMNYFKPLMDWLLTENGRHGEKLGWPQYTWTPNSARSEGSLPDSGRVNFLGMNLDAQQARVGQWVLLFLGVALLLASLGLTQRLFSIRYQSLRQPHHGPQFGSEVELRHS
As to the kind of experiment: In vitro inhibitory activity was evaluated against angiotensin converting enzyme from rabbit in bovine buffered base.

On to `O=C(O)[C@@H]1CCCN1C(=O)[C@@H](CS)C(F)(F)F`, for which inhibition was half-maximal at 0.29 nM (IC50).
To `O=C(O)[C@@H]1CCCN1C(=O)[C@H](CS)C(F)(F)F` belongs 480 nM.
